For 25 compounds, IC50, inhibition and Emax results are on record in ChEMBL document CHEMBL4837226, “Discovery of pyrrole derivatives for the treatment of glioblastoma and chronic myeloid leukemia” (Eur J Med Chem, 2021).

Structures can show the parent of a compound that is named as a salt.

Assay [1] concerns KBM5. As to the kind of experiment: Cytotoxicity against Imatinib mesylate sensitive wild-type human KBM5 cells assessed as cell growth inhibition measured after 48 hrs by MTT assay. It counts as functional, cell-based. As to conditions: KBM5, 48 h.
Assay [2] concerns KBM5. In words: Cytotoxicity against imatinib mesylate resistant wild-type human KBM5 cells expressing T315I mutant assessed as cell growth inhibition measured after 48 hrs by MTT assay. As to conditions: KBM5, 48 h. Format: functional, cell-based.
Assay [3] deals with KU812 cell line. In words: Cytotoxicity against Bcr-Abl expressing human KU812 cells assessed as cell growth inhibition measured after 48 hrs by MTT assay. It counts as functional, cell-based. As to conditions: KU812, 48 h. A general note: Tetrazolium assays rely on reduction of a dye to a coloured formazan, in cell work by metabolically active cells.
For assay [4], the target named is T1, Tubulin (Homo sapiens) (UniProt P68371+Q9H4B7+P0DPH7+P68366+Q13509+Q71U36+P04350+Q3ZCM7+P07437+P68363+Q9BQE3+Q6PEY2+Q13885+Q9BVA1+Q9BUF5). In words: Inhibition of [3H]Colchicine binding to tubulin (unknown origin) at 5 uM measured after 10 mins by DEAE-Cellulose filter method relative to control. Format: protein-complex assay.
In assay [5] the test system is MCF7. As to the kind of experiment: Cytotoxicity against human MCF7 cells assessed as cell growth inhibition measured after 96 hrs. It counts as functional, cell-based. The note with it: MCF7, 96 h.
Assay [6] has as its target Tubulin. As to the kind of experiment: Inhibition of tubulin polymerization (unknown origin) assessed as reduction in tubulin assembly preincubated for 15 mins followed by GTP addition by spectrophotometric method. It counts as protein-complex assay, Homo sapiens.
Assay [7] concerns SW-620. As to the kind of experiment: Cytotoxicity against human SW-620 cells assessed as cell growth inhibition measured after 48 hrs by XTT dye based assay. Format: functional. The note with it: SW-620, 48 h.
A short description of assay [8]: Cytotoxicity against human U-343MG cells assessed as cell growth inhibition measured after 72 hrs by MTS colorimetric assay. Format: functional, cell-based.
In assay [9] the test system is SW480. In words: Cytotoxicity against human SW480 cells assessed as cell growth inhibition measured after 48 hrs by XTT dye based assay. It counts as functional. As to conditions: SW480, 48 h.
Assay [10] can be described thus: Cytotoxicity against human U343MG cells assessed as cell growth inhibition by measuring maximum efficacy measured after 72 hrs by MTS colorimetric assay relative to control. It counts as functional. As to conditions: U-343MG.
For assay [11], the system named is U-87 MG. As to the kind of experiment: Cytotoxicity against human U-87MG cells assessed as cell growth inhibition measured after 48 hrs by MTS colorimetric assay. It counts as functional, cell-based, U-87MG ATCC.
The test system of assay [12] is U-87 MG. As to the kind of experiment: Cytotoxicity against human U-87MG cells assessed as cell growth inhibition by measuring maximum efficacy measured after 48 hrs by MTS colorimetric assay relative to control. Format: functional, U-87MG ATCC.
Assay [13] addresses T1, Tubulin (Homo sapiens). As to the kind of experiment: Inhibition of [3H]Colchicine binding to tubulin (unknown origin) at 1 uM measured after 10 mins by DEAE-Cellulose filter method relative to control. Format: protein-complex assay.

What is called IC50 is the midpoint of a concentration-inhibition curve. With `Cc1ccc(C(=O)Nc2ccc(CN3CCN(C)CC3)c(C(F)(F)F)c2)cc1C#Cc1cnc2cccnn12` [PONATINIB], the IC50 in assay [1] turned out to be 10.2 nM; in assay [2], 10.6 nM; in assay [3], 8.5 nM.
In general, inhibition refers to the percentage by which the read-out fell short of the control. Lower therefore signals a weak effect. Compound `COc1cc(C(=O)c2cn(-c3cccc(C)c3)cc2-c2ccco2)cc(OC)c1OC` showed an inhibition in [4] of 80%. Besides, the IC50 is 23 nM in assay [5] and 560 nM in assay [6].
Taken in the same sequence, the figures for `COc1cc(C(=O)c2cn(-c3ccc(F)cc3)cc2-c2ccco2)cc(OC)c1OC` were 82%, 17 nM and 470 nM.
Take `Cc1ccc(NC(=O)c2ccc(CN3CCN(C)CC3)cc2)cc1Nc1nccc(-c2cccnc2)n1` [IMATINIB MESYLATE]: the IC50 in [1] was 152 nM; in assay [2], 311 nM; in assay [3], 311 nM.
In assay [4], `COc1cc(C(=O)c2cn(-c3cccc(C)c3)cc2-c2ccsc2)cc(OC)c1OC` returned an inhibition of 74%. For the same compound, the IC50 in assay [5] worked out at 65 nM; in assay [6] it was 520 nM.
For the compound `COc1cc(C(=O)c2cn(-c3ccc(F)cc3)cc2-c2ccncc2)cc(OC)c1OC`, the 50% inhibitory concentration (IC50) in assay [7] stood at 66.5 nM; in assay [8] it was 432 nM; in assay [9], 934 nM; in assay [1] it was 12.2 nM; in [5], 9 nM; in assay [6], 580 nM. For the same compound, the values for the half-maximal inhibitory concentration (IC50) in assay [11], in assay [2] and in [3] were 39.1 nM, 13.1 nM and 12.4 nM, respectively. Further, the Emax in [10] was 75.1%; in assay [12], 56%. Besides, in [4], the inhibition worked out at 87%.
Compound `COc1cc(C(=O)c2cn(-c3ccc(C)cc3)cc2-c2ccccn2)cc(OC)c1OC` returned an inhibition in assay [4] of 83%. For the same compound, the IC50 in assay [5] was 36 nM; in assay [6], 460 nM.
`COc1cc(C(=O)c2cn(-c3cccc(C)c3)cc2-c2ccccn2)cc(OC)c1OC` came in with an inhibition in [4] of 66%. The 50% inhibitory concentration (IC50) was 140 nM in assay [5] and 780 nM in assay [6].
On to `COc1cc(C(=O)c2cn(-c3ccc(F)cc3)cc2-c2ccoc2)cc(OC)c1OC`, for which the inhibition in assay [13] is 71%; in assay [4] it was 87%. In addition, the IC50 in assay [5] turned out to be 15 nM; in [6], 380 nM.
The corresponding values for `COc1cc(C(=O)c2cn(-c3ccc(C)cc3)cc2-c2ccncc2)cc(OC)c1OC` are 70%, 94%, 9 nM and 440 nM.
For `COc1cc(C(=O)c2cn(-c3ccc(F)cc3)cc2-c2ccccn2)cc(OC)c1OC`, the inhibition in assay [4] was found to be 44%. For the same compound, the half-maximal inhibitory concentration (IC50) in assay [5] came out at 73 nM; in assay [6] it was 820 nM.
Take `COc1cc(C(=O)c2cn(-c3ccc(C)cc3)cc2-c2ncco2)cc(OC)c1OC`: the values for the inhibition in [13] and in assay [4] were 45% and 90%, respectively. Besides, the figures for the IC50 in assay [5] and in [6] were 42 nM and 720 nM, respectively.
The compound `COc1cc(C(=O)c2cn(-c3cccc(C)c3)cc2-c2nccs2)cc(OC)c1OC` returned an inhibition in assay [4] of 83%. Also, the IC50 was determined as 20 nM in assay [5] and 490 nM in assay [6].
On to `COc1cc(C(=O)c2cn(-c3ccc(C)cc3)cc2-c2nccs2)cc(OC)c1OC`, for which the inhibition in assay [13] came to 63%; in [4] it was 91%. Moreover, the concentration for half-maximal inhibition (IC50) in assay [5] is 14 nM; in assay [6], 560 nM.
Consider `COc1cc(C(=O)c2cn(-c3cccc(C)c3)cc2-c2ccncc2)cc(OC)c1OC`, for which, in [4], the inhibition turned out to be 88%. The IC50 is 65 nM in assay [5] and 590 nM in assay [6].
Consider `COc1cc(C(=O)c2cn(-c3ccc(C)cc3)cc2-c2ccco2)cc(OC)c1OC`, for which the inhibition in assay [13] worked out at 71%; in assay [4], 92%. Further, the IC50 came to 22 nM in assay [5] and 460 nM in assay [6].
In assay [4], `COc1cc(C(=O)c2cn(-c3ccc(F)cc3)cc2-c2cccnc2)cc(OC)c1OC` gave an inhibition of 80%. Further, the IC50 came out at 39 nM in assay [5] and 560 nM in [6].
In the case of `COc1cc(C(=O)c2cn(-c3ccc(C)cc3)cc2-c2ccoc2)cc(OC)c1OC`, the inhibition turned out to be 71% in assay [13] and 95% in [4]. For the same compound, the 50% inhibitory concentration (IC50) in assay [5] came to 18 nM; in [6], 470 nM.
In the case of `COc1cc(C(=O)c2cn(-c3ccc(F)cc3)cc2-c2ncco2)cc(OC)c1OC`, the inhibition in [4] came out at 68%. Also, the IC50 in assay [5] was determined as 93 nM; in assay [6] it was 1400 nM.
In the case of `COc1cc(C(=O)c2cn(-c3cccc(C)c3)cc2-c2ccoc2)cc(OC)c1OC`, the inhibition in assay [13] turned out to be 64%; in [4] it was 87%. For the same compound, the half-inhibitory concentration (IC50) in assay [5] was 21 nM; in assay [6], 420 nM.
The compound `COc1cc(C(=O)c2cn(-c3cccc(C)c3)cc2-c2cccnc2)cc(OC)c1OC` returned an inhibition in [4] of 78%. The IC50 in [5] amounted to 52 nM; in assay [6], 740 nM.
The corresponding values for `COc1cc(C(=O)c2cn(-c3ccc(F)cc3)cc2-c2ccsc2)cc(OC)c1OC` are 76%, 15 nM and 550 nM.
Taken in the same sequence, the figures for `COc1cc(C(=O)c2cn(-c3ccc(F)cc3)cc2-c2nccs2)cc(OC)c1OC` were 69%, 22 nM and 780 nM.
For `COc1cc(C(=O)c2cn(-c3ccc(C)cc3)cc2-c2cccnc2)cc(OC)c1OC`, the values for the inhibition in assay [13] and in [4] were 58% and 92%, respectively. The figures for the IC50 in assay [5] and in assay [6] were 19 nM and 640 nM, respectively.
Compound `COc1cc(C(=O)c2cn(-c3cccc(C)c3)cc2-c2ncco2)cc(OC)c1OC` registered an inhibition in assay [4] of 77%. For the same compound, the half-inhibitory concentration (IC50) was 75 nM in [5] and 720 nM in [6].
